{
  "source": "paper PMC5218480",
  "about": "(PLoS ONE, 2017)",
  "test_system": "MV-4-11 cells",
  "experiment": "Gene expression microarray analysis (Affymetrix PrimeView) and GSEA",
  "assay_type": "cell-based, human",
  "parameters": "RFU PODN (11730768_x_at) / Fold change /veh PODN (11730768_x_at) / RFU LINC00158 (11744669_a_at) / Fold change /veh LINC00158 (11744669_a_at) / RFU DUSP10 (11751237_a_at) / Fold change /veh DUSP10 (11751237_a_at) / RFU ID3 (11757404_x_at) / Fold change /veh ID3 (11757404_x_at) / RFU PLEKHG5 (11737974_s_at) / Fold change /veh PLEKHG5 (11737974_s_at) / RFU LRRC4B (11730491_at) / Fold change /veh LRRC4B (11730491_at) / RFU GIMAP4 (11747438_a_at) / Fold change /veh GIMAP4 (11747438_a_at) / RFU KRT8 (11758183_x_at) / Fold change /veh KRT8 (11758183_x_at) / RFU CNN1 (11734310_a_at) / Fold change /veh CNN1 (11734310_a_at) / RFU VPS37D (11726825_at) / Fold change /veh VPS37D (11726825_at) / RFU C10orf10 (11716522_x_at) / Fold change /veh C10orf10 (11716522_x_at) / RFU KIR2DL2 /// KIR2DL4 /// KIR2DL5A /// KIR2DL5B /// KIR2DS1 /// KIR2DS2 /// KIR2DS3 /// KIR2DS4 /// KIR3DL3 /// KIR3DL3 /// KIR3DS1 (11738374_at) / Fold change /veh KIR2DL2 /// KIR2DL4 /// KIR2DL5A /// KIR2DL5B /// KIR2DS1 /// KIR2DS2 /// KIR2DS3 /// KIR2DS4 /// KIR3DL3 /// KIR3DL3 /// KIR3DS1 (11738374_at) / RFU C1QL1 (11718748_at) / Fold change /veh C1QL1 (11718748_at) / RFU TMPRSS4 (11747572_a_at) / Fold change /veh TMPRSS4 (11747572_a_at) / RFU HAMP (11756126_x_at) / Fold change /veh HAMP (11756126_x_at) / RFU RNFT2 (11725882_a_at) / Fold change /veh RNFT2 (11725882_a_at) / RFU NR4A2 (11747474_a_at) / Fold change /veh NR4A2 (11747474_a_at) / RFU ABCC12 (11746883_a_at) / Fold change /veh ABCC12 (11746883_a_at) / RFU TMEM136 (11760407_x_at) / Fold change /veh TMEM136 (11760407_x_at) / RFU CLDN22 /// WWC2 (11732394_at) / Fold change /veh CLDN22 /// WWC2 (11732394_at) / RFU HLA-DPB1 (11760878_x_at) / Fold change /veh HLA-DPB1 (11760878_x_at) / RFU SPINT1 (11716480_a_at) / Fold change /veh SPINT1 (11716480_a_at) / RFU GAP43 (11754022_s_at) / Fold change /veh GAP43 (11754022_s_at) / RFU A4GNT (11735810_at) / Fold change /veh A4GNT (11735810_at) / RFU PRB3 (11715151_x_at) / Fold change /veh PRB3 (11715151_x_at) / RFU TUBB4B (11761932_at) / Fold change /veh TUBB4B (11761932_at) / RFU CAPN14 (11732068_a_at) / Fold change /veh CAPN14 (11732068_a_at) / RFU TMCC2 (11721928_a_at) / Fold change /veh TMCC2 (11721928_a_at) / RFU IRGQ (11745062_a_at) / Fold change /veh IRGQ (11745062_a_at) / RFU FAM174B (11720279_a_at) / Fold change /veh FAM174B (11720279_a_at) / RFU TMPRSS4 (11748680_a_at) / Fold change /veh TMPRSS4 (11748680_a_at) / RFU FAM212B (11763350_a_at) / Fold change /veh FAM212B (11763350_a_at) / RFU PLEKHG5 (11743358_a_at) / Fold change /veh PLEKHG5 (11743358_a_at) / RFU ZSCAN30 (11745921_a_at) / Fold change /veh ZSCAN30 (11745921_a_at) / RFU CMKLR1 (11741424_a_at) / Fold change /veh CMKLR1 (11741424_a_at) / RFU LOC101060620 /// MAPK8IP1 (11723275_at) / Fold change /veh LOC101060620 /// MAPK8IP1 (11723275_at) / RFU SPTSSB (11747773_x_at) / Fold change /veh SPTSSB (11747773_x_at) / RFU PRSS12 (11739890_at) / Fold change /veh PRSS12 (11739890_at) / RFU BIN1 (11741810_x_at) / Fold change /veh BIN1 (11741810_x_at) / RFU WNT11 (11732464_a_at) / Fold change /veh WNT11 (11732464_a_at) / RFU C10orf10 (11716521_a_at) / Fold change /veh C10orf10 (11716521_a_at) / RFU C5orf56 (11738089_at) / Fold change /veh C5orf56 (11738089_at) / RFU CYB561 (11721691_x_at) / Fold change /veh CYB561 (11721691_x_at) / RFU ANKRD19P (11752326_a_at) / Fold change /veh ANKRD19P (11752326_a_at) / RFU OR2T12 /// OR2T33 /// OR2T8 (11738714_s_at) / Fold change /veh OR2T12 /// OR2T33 /// OR2T8 (11738714_s_at) / RFU VCAN (11748164_a_at) / Fold change /veh VCAN (11748164_a_at) / RFU JSRP1 (11732532_at) / Fold change /veh JSRP1 (11732532_at) / RFU KRTAP10-11 (11738290_x_at) / Fold change /veh KRTAP10-11 (11738290_x_at) / RFU MYO3A (11730013_a_at) / Fold change /veh MYO3A (11730013_a_at) / RFU EBF3 (11725865_a_at) / Fold change /veh EBF3 (11725865_a_at) / RFU CAMK2N1 (11719241_x_at) / Fold change /veh CAMK2N1 (11719241_x_at) / RFU C5orf56 (11738088_a_at) / Fold change /veh C5orf56 (11738088_a_at) / RFU OLFML3 (11715873_a_at) / Fold change /veh OLFML3 (11715873_a_at) / RFU LOC100653217 /// NTM (11731650_a_at) / Fold change /veh LOC100653217 /// NTM (11731650_a_at) / RFU MAPK11 (11762145_a_at) / Fold change /veh MAPK11 (11762145_a_at) / RFU FIZ1 (11724087_x_at) / Fold change /veh FIZ1 (11724087_x_at) / RFU OASL (11726364_x_at) / Fold change /veh OASL (11726364_x_at) / RFU SOX15 (11748057_x_at) / Fold change /veh SOX15 (11748057_x_at) / RFU CD79A (11719716_a_at) / Fold change /veh CD79A (11719716_a_at) / RFU HIST1H1D (11736915_at) / Fold change /veh HIST1H1D (11736915_at) / RFU CASKIN2 (11723855_a_at) / Fold change /veh CASKIN2 (11723855_a_at) / RFU LOC730098 (11760151_x_at) / Fold change /veh LOC730098 (11760151_x_at) / RFU OR4N2 (11742367_at) / Fold change /veh OR4N2 (11742367_at) / RFU PRRT2 (11749266_a_at) / Fold change /veh PRRT2 (11749266_a_at) / RFU SNX32 (11753110_a_at) / Fold change /veh SNX32 (11753110_a_at) / RFU CDHR5 (11726645_a_at) / Fold change /veh CDHR5 (11726645_a_at) / RFU RCAN1 (11760418_a_at) / Fold change /veh RCAN1 (11760418_a_at) / RFU FAM167A (11723789_a_at) / Fold change /veh FAM167A (11723789_a_at) / RFU FAM26E (11764081_at) / Fold change /veh FAM26E (11764081_at) / RFU ISYNA1 (11749810_s_at) / Fold change /veh ISYNA1 (11749810_s_at) / RFU ACY1 (11761880_at) / Fold change /veh ACY1 (11761880_at) / RFU 11764098_at / Fold change /veh 11764098_at / RFU SAMD14 (11745864_x_at) / Fold change /veh SAMD14 (11745864_x_at) / RFU NPB (11741838_a_at) / Fold change /veh NPB (11741838_a_at) / RFU TMPRSS6 (11731388_a_at) / Fold change /veh TMPRSS6 (11731388_a_at) / RFU KRTAP10-2 (11738614_at) / Fold change /veh KRTAP10-2 (11738614_at) / RFU ARHGAP8 /// PRR5-ARHGAP8 (11727945_x_at) / Fold change /veh ARHGAP8 /// PRR5-ARHGAP8 (11727945_x_at) / RFU KRTAP5-7 /// NADSYN1 (11734609_at) / Fold change /veh KRTAP5-7 /// NADSYN1 (11734609_at) / RFU RASL12 (11751679_a_at) / Fold change /veh RASL12 (11751679_a_at) / RFU CDKN2B (11736163_a_at) / Fold change /veh CDKN2B (11736163_a_at) / RFU PRF1 (11729649_at) / Fold change /veh PRF1 (11729649_at) / RFU, ZNF638 /// ZNF638-IT1 / Fold change vs veh, ZNF638 /// ZNF638-IT1 / RFU, PANK3 / Fold change vs veh, PANK3 / RFU, SH3YL1 / Fold change vs veh, SH3YL1 / RFU, ZEB2 / Fold change vs veh, ZEB2 / RFU, NRIP1 / Fold change vs veh, NRIP1 / RFU, PTTG1IP / Fold change vs veh, PTTG1IP / RFU, CAPN2 / Fold change vs veh, CAPN2 / RFU, MED14 / Fold change vs veh, MED14 / RFU, SNORA58 / Fold change vs veh, SNORA58 / RFU, C1orf63 / Fold change vs veh, C1orf63 / RFU, LRRFIP1 / Fold change vs veh, LRRFIP1 / RFU, NDUFAF7 / Fold change vs veh, NDUFAF7 / RFU, SLC12A2 / Fold change vs veh, SLC12A2 / RFU, IBTK / Fold change vs veh, IBTK / RFU, ESF1 / Fold change vs veh, ESF1 / Fold change vs veh, TMEM50B / RFU, TAOK1 / Fold change vs veh, TAOK1 / RFU, ACBD3 / Fold change vs veh, ACBD3 / RFU, TMA16 / Fold change vs veh, TMA16 / RFU, RWDD3 / Fold change vs veh, RWDD3 / RFU, BCAT1 / Fold change vs veh, BCAT1 / RFU, EDEM3 / Fold change vs veh, EDEM3 / RFU, TMEM33 / Fold change vs veh, TMEM33 / RFU, WDR75 / Fold change vs veh, WDR75 / RFU, AHCTF1 / Fold change vs veh, AHCTF1 / RFU, TFRC / Fold change vs veh, TFRC / RFU, ZDHHC17 / Fold change vs veh, ZDHHC17 / RFU, NOM1 / Fold change vs veh, NOM1 / RFU, ARL8B / Fold change vs veh, ARL8B / RFU, ZBTB11 / Fold change vs veh, ZBTB11 / RFU, TAMM41 / Fold change vs veh, TAMM41 / RFU, KIAA1704 /// LOC100996395 / Fold change vs veh, KIAA1704 /// LOC100996395 / RFU, ING1 / Fold change vs veh, ING1 / RFU, TRMT61B / Fold change vs veh, TRMT61B / RFU, FUBP3 / Fold change vs veh, FUBP3 / RFU, TP53 / Fold change vs veh, TP53 / RFU, TNKS2 / Fold change vs veh, TNKS2 / RFU, ZFP14 / Fold change vs veh, ZFP14 / RFU, ACTR2 / Fold change vs veh, ACTR2 / RFU, PPP3R1 / Fold change vs veh, PPP3R1 / RFU, PIK3R1 / Fold change vs veh, PIK3R1 / RFU, HNRNPA1 / Fold change vs veh, HNRNPA1 / RFU, RNF170 / Fold change vs veh, RNF170 / RFU, ZNF28 / Fold change vs veh, ZNF28 / RFU, RNGTT / Fold change vs veh, RNGTT / RFU, OGT / Fold change vs veh, OGT / RFU, BRD1 / Fold change vs veh, BRD1 / RFU, MARS / Fold change vs veh, MARS / RFU, ZNF655 / Fold change vs veh, ZNF655 / RFU, FAHD1 / Fold change vs veh, FAHD1 / RFU, BDP1 / Fold change vs veh, BDP1 / RFU, LRRCC1 / Fold change vs veh, LRRCC1 / RFU, ARID1A / Fold change vs veh, ARID1A / RFU, ZNF146 / Fold change vs veh, ZNF146 / RFU, ZNF330 / Fold change vs veh, ZNF330 / RFU, GPN3 / Fold change vs veh, GPN3 / RFU, C9orf123 / Fold change vs veh, C9orf123 / RFU, N4BP2L2 / Fold change vs veh, N4BP2L2 / RFU, ARFIP1 / Fold change vs veh, ARFIP1 / RFU, FAM179B / Fold change vs veh, FAM179B / RFU, BCL10 / Fold change vs veh, BCL10 / RFU, UHRF1BP1L / Fold change vs veh, UHRF1BP1L / RFU, BET1 / Fold change vs veh, BET1 / RFU, CNOT2 / Fold change vs veh, CNOT2 / RFU, ZNF268 / Fold change vs veh, ZNF268 / Fold change vs veh, ZNF507 / RFU, DGCR2 / Fold change vs veh, DGCR2 / RFU, WDSUB1 / Fold change vs veh, WDSUB1 / Fold change vs veh, HSP90B1 /// MIR3652 / RFU, ADSS / Fold change vs veh, ADSS / RFU, GK / Fold change vs veh, GK / RFU, ZNF148 / Fold change vs veh, ZNF148 / RFU, TAF9 / Fold change vs veh, TAF9 / RFU, SLC1A5 / Fold change vs veh, SLC1A5 / RFU, SLMO2 / Fold change vs veh, SLMO2 / RFU, ABCC4 / Fold change vs veh, ABCC4 / RFU, LOC101060439 /// RAP1B / Fold change vs veh, LOC101060439 /// RAP1B / RFU, RFX7 / Fold change vs veh, RFX7 / RFU, GTPBP10 / Fold change vs veh, GTPBP10 / RFU, CNEP1R1 / Fold change vs veh, CNEP1R1 / RFU, BIVM-ERCC5 /// ERCC5 / Fold change vs veh, BIVM-ERCC5 /// ERCC5 / RFU, ILF3 / Fold change vs veh, ILF3 / RFU 11762660_at / Fold change /veh 11762660_at / RFU VCAN (11757783_s_at) / Fold change /veh VCAN (11757783_s_at) / RFU DDX43 (11728927_at) / Fold change /veh DDX43 (11728927_at) / RFU KRT8 (11758188_x_at) / Fold change /veh KRT8 (11758188_x_at) / RFU NKD1 (11759106_at) / Fold change /veh NKD1 (11759106_at) / RFU SRD5A1 (11742802_a_at) / Fold change /veh SRD5A1 (11742802_a_at) / RFU TPSAB1 /// TPSB2 (11721975_s_at) / Fold change /veh TPSAB1 /// TPSB2 (11721975_s_at) / RFU GSTM3 (11746129_a_at) / Fold change /veh GSTM3 (11746129_a_at) / RFU IL23R (11737362_x_at) / Fold change /veh IL23R (11737362_x_at) / RFU TMEM51 (11727254_a_at) / Fold change /veh TMEM51 (11727254_a_at) / RFU PIWIL2 (11732686_x_at) / Fold change /veh PIWIL2 (11732686_x_at) / RFU ORM1 (11744905_x_at) / Fold change /veh ORM1 (11744905_x_at) / RFU CCDC152 (11743942_at) / Fold change /veh CCDC152 (11743942_at) / RFU ECM1 (11717891_a_at) / Fold change /veh ECM1 (11717891_a_at) / RFU IL23R (11748794_a_at) / Fold change /veh IL23R (11748794_a_at) / RFU TNFAIP8L3 (11732012_x_at) / Fold change /veh TNFAIP8L3 (11732012_x_at) / RFU MBOAT4 (11741988_at) / Fold change /veh MBOAT4 (11741988_at) / RFU 11764193_at / Fold change /veh 11764193_at / RFU TMEM53 (11763286_at) / Fold change /veh TMEM53 (11763286_at) / RFU MAGEB2 (11727129_at) / Fold change /veh MAGEB2 (11727129_at) / RFU TMEM200A (11744735_a_at) / Fold change /veh TMEM200A (11744735_a_at) / RFU CCDC152 (11751479_a_at) / Fold change /veh CCDC152 (11751479_a_at) / RFU FAM211A (11726209_a_at) / Fold change /veh FAM211A (11726209_a_at) / RFU RGS16 (11746705_a_at) / Fold change /veh RGS16 (11746705_a_at) / RFU VCAN (11755009_s_at) / Fold change /veh VCAN (11755009_s_at) / RFU RHOB (11743442_s_at) / Fold change /veh RHOB (11743442_s_at) / RFU RGS16 (11720943_a_at) / Fold change /veh RGS16 (11720943_a_at) / RFU RGS16 (11720944_at) / Fold change /veh RGS16 (11720944_at) / RFU, VPS4B / Fold change vs veh, VPS4B / RFU, CREB1 / Fold change vs veh, CREB1 / RFU, DNAJC13 / Fold change vs veh, DNAJC13 / RFU, GNAQ / Fold change vs veh, GNAQ / RFU, CDK5R1 / Fold change vs veh, CDK5R1 / RFU, ZRANB3 / Fold change vs veh, ZRANB3 / RFU, CUL4A / Fold change vs veh, CUL4A / RFU, CCNY / Fold change vs veh, CCNY / RFU, UFL1 / Fold change vs veh, UFL1 / RFU, COG3 / Fold change vs veh, COG3 / RFU, DIAPH2 / Fold change vs veh, DIAPH2 / RFU, SKA2 / Fold change vs veh, SKA2 / RFU, AFF3 / Fold change vs veh, AFF3 / RFU, LMF1 / Fold change vs veh, LMF1 / RFU, IPO11 / Fold change vs veh, IPO11 / RFU, DFFB / Fold change vs veh, DFFB / RFU, FOXP1 / Fold change vs veh, FOXP1 / RFU, CARD8 / Fold change vs veh, CARD8 / RFU, STRN3 / Fold change vs veh, STRN3 / RFU, ADK / Fold change vs veh, ADK / RFU, RASSF2 / Fold change vs veh, RASSF2 / RFU, WIPF1 / Fold change vs veh, WIPF1 / RFU, LARP1B / Fold change vs veh, LARP1B / RFU, RASA1 / Fold change vs veh, RASA1 / RFU, RB1 / Fold change vs veh, RB1 / RFU, PPFIA1 / Fold change vs veh, PPFIA1 / RFU, MAT2A / Fold change vs veh, MAT2A / RFU, CCT5 / Fold change vs veh, CCT5 / RFU, WDR92 / Fold change vs veh, WDR92 / RFU, CUX1 / Fold change vs veh, CUX1 / RFU, TTC7A / Fold change vs veh, TTC7A / RFU, TMEM135 / Fold change vs veh, TMEM135 / RFU, DEPTOR / Fold change vs veh, DEPTOR / RFU, CPM / Fold change vs veh, CPM / RFU, DNAJB6 / Fold change vs veh, DNAJB6 / RFU, CACNA2D3 / Fold change vs veh, CACNA2D3 / RFU, DTX4 / Fold change vs veh, DTX4 / RFU, TFCP2 / Fold change vs veh, TFCP2 / RFU, GMCL1 /// GMCL1P1 / Fold change vs veh, GMCL1 /// GMCL1P1 / RFU, AEBP2 / Fold change vs veh, AEBP2 / RFU, SNHG1 /// SNORD22 /// SNORD25 /// SNORD26 /// SNORD27 /// SNORD28 /// SNORD29 /// SNORD31 / Fold change vs veh, SNHG1 /// SNORD22 /// SNORD25 /// SNORD26 /// SNORD27 /// SNORD28 /// SNORD29 /// SNORD31 / Fold change (Aza/veh), C12orf56 (ProbeSet 11735607_a_at) / Fold change (ACY-1035/veh), C12orf56 (ProbeSet 11735607_a_at) / Fold change (Aza/veh), FGFR1OP (ProbeSet 11751329_s_at) / Fold change (ACY-1035/veh), FGFR1OP (ProbeSet 11751329_s_at) / Fold change (Aza/veh), VPS36 (ProbeSet 11739960_a_at) / Fold change (ACY-1035/veh), VPS36 (ProbeSet 11739960_a_at) / RFU SYPL1 (11715823_x_at) / Fold change /veh SYPL1 (11715823_x_at) / RFU IGFBP7 (11715501_s_at) / Fold change /veh IGFBP7 (11715501_s_at) / RFU REEP3 (11722064_at) / Fold change /veh REEP3 (11722064_at) / RFU IGLL1 (11728026_x_at) / Fold change /veh IGLL1 (11728026_x_at): dose or concentration left out as unconfirmed",
  "details": "ProbeSet 11732370_a_at; LIST D",
  "data": [
    {"compound": "Nc1ccc(-c2cccs2)cc1NC(=O)c1ccc2c(c1)cc(C1CC1)n2CCN1CCOCC1", "note": "[ACY-1035]", "values": [
      {"measurement": "Fold change vs veh, CUX1", "result": 0.84}
    ]}
  ]
}
